These compounds were tested against T1, HIV-1 protease (Q7S mutant form) (Human immunodeficiency virus type 1 group M subtype B, UniProt P04585, Q495S) (assay: HIV-1 Protease RET assay). Conditions: Ave. Ki (nM), RET assay, Q7S enzyme, Morrison tight binding fit.
T1 construct: made in house
Format: biochemical
Description: Ki's for the inhibitors of HIV-1 protease were determined using a resonance energy transfer (RET) assay. […] This enzyme is first partially purified as inclusion bodies from cell lysate. It is then solublized in 8M urea and passed through a Q-Sepharose column (Pharmacia) for further purification. To refold this protein, samples containing Q7S is dialyzed into 50 mM sodium phosphate pH 7.0, 50 mM NaCl, 10 mM DTT, and 10% glycerol.
The commercially available peptide substrate (Molecular Probes Cat. # H-2930) RE(EDANS)SQNYPIVQK(DABCYL)R is used to assess activity and Ki's. This peptide is cleaved quantitatively by HIV-1 Pr at the Tyr-Pro bond. The EDANS fluorophore absorbs at 340 nm and emits at 490 nm. The reaction is carried out in a 96 well plate in a total volume of 100 µL and is run for 12 minutes at 37 C under steady-state conditions with 5 µM substrate and 2 nM active dimer enzyme concentration. The literature value Km for this substrate and enzyme is 103+/−8 µM (See Matayoshi, et al., “Novel Fluorogenic Substrates for Assaying Retroviral Proteases by Resonance Energy Transfer,” Science 247, 954 (1990)). The buffer for this reaction is 0.1M sodium acetate pH 4.8, 1M NaCl, 1 mM EDTA, 5 mM dithiothreitol, 10% dimethyl sulfoxide and 1 mg/ml bovine serum albumin. Inhibition curves are fit using the Morrison tight binding equation.

**Q.** For `Cc1ccccc1CNC(=O)[C@H]1N(C(=O)C(O)C(Cc2ccccc2)NC(=O)NCc2ccc(F)cc2F)CSC1(C)C` (stereo in doubt) [Example B71, 3-{3-[3-(2,4-Difluoro-benzyl)-ureido]-2-hydroxy-4-phenyl-butyryl}-5,5-dimethyl-thiazolidine-4-carboxylic acid 2-methyl-benzylamide], which Ki is on record?
**A.** 6.4 nM

**Q.** For `Cc1c(O)cccc1C(=O)N[C@@H](Cc1ccccc1)[C@H](O)C(=O)N1CO[C@@H](C)[C@H]1C(=O)N[C@@H]1C=CCCC1` [Example C28, (4S,5S)-3-((2S,3S)-2-Hydroxy-3-{[1-(3-hydroxy-2-methyl-phenyl)-methanoyl]-amino}-4phenyl-butanoyl)-5-methyl-oxazoldine-4-carboxylic acid (S)-cyclohex-2-enylamide], which Ki is on record?
**A.** 8.4 nM

**Q.** With `Cc1ccccc1CNC(=O)[C@H]1N(C(=O)C(O)C(Cc2ccccc2)NC(=O)NCc2ccc(Br)cc2)CSC1(C)C` (stereo in doubt) [Example B73, 3-{3-[3-(4Bromo-benzyl)-ureido]-2-hydroxy-4phenyl-butyryl}-5,5-dimethyl-thiazolidine-4-carboxylic acid 2-methyl-benzylamide] as the compound, how does the Ki read?
**A.** 13 nM

**Q.** How did the Ki turn out when `COc1cccc(CNC(=O)N[C@@H](Cc2ccccc2)[C@H](O)C(=O)N2CSC(C)(C)[C@H]2C(=O)NCc2ccccc2C)c1` [Example B76, (R)-3-{(2S,3S)-2-Hydroxy-3-[3-(3-methoxy-benzyl)-ureido]-4-phenyl-butyryl}-5,5-dimethyl-thiazolidine-4-carboxylic acid 2-methyl-benzylamide] was run?
**A.** 11.2 nM

**Q.** Which Ki does the source give for `CC1(C)SCN(C(=O)[C@@H](O)[C@H](Cc2ccccc2)NC(=O)NCc2ccccc2)[C@@H]1C(=O)NCc1ccccc1` [Example B61, 3-[(2S,3S)-3-(3-Benzyl-ureido)-2-hydroxy-4-phenyl-butyryl]-5,5-dimethyl-thiazolidine-4-carboxylic acid benzylamide] here?
**A.** 16.9 nM

**Q.** With `Cc1ccccc1CNC(=O)[C@H]1N(C(=O)[C@@H](O)[C@H](Cc2ccccc2)NC(=O)NCc2cccc(C(F)(F)F)c2)CSC1(C)C` [Example B75, (R)-3-{(2S,3S)-2-Hydroxy-4-phenyl-3-[3-(3-trifluoromethyl-benzyl)-ureido]-butyryl}-5,5-dimethyl-thiazolidine-4-carboxylic acid 2-methyl-benzylamide] as the compound, how does the Ki read?
**A.** 81 nM

**Q.** For `Cc1ccccc1CNC(=O)NC(Cc1ccccc1)C(O)C(=O)N1CSC(C)(C)[C@H]1C(=O)NCc1ccncc1` (stereo partly drawn) [Example B66, 3-{(2S,3S)-2-Hydroxy-3-[3-(2-methyl-benzyl)-ureido]-phenyl-butyryl}-5,5-dimethyl-thiazolidine-4-carboxylic acid (pyridin-4-ylmethyl)-amide], which Ki is on record?
**A.** 5.2 nM

**Q.** How did the Ki turn out when `COc1ccc(CNC(=O)N[C@@H](Cc2ccccc2)[C@H](O)C(=O)N2CSC(C)(C)[C@H]2C(=O)NCc2ccccc2C)cc1OC` [Example B74, (R)-3-{(2S,3S)-3-[3-(3,4Dimethoxy-benzyl)ureido]-2-hydroxy-4-phenyl-butyryl}-5,5-dimethyl-thiazolidine-4-carboxylic acid 2-methyl-benzylamide] was run?
**A.** 39 nM

**Q.** For `CC1(C)SCN(C(=O)[C@@H](O)[C@H](Cc2ccccc2)NC(=O)NCc2c(F)cccc2F)[C@@H]1C(=O)NCc1c(F)cccc1F` [Example B49], which Ki is on record?
**A.** 120 nM

**Q.** For `Cc1ccccc1CNC(=O)[C@H]1N(C(=O)C(O)C(Cc2ccccc2)NC(=O)NCc2ccccc2Br)CSC1(C)C` (stereo in doubt) [Example B72, 3-{3-[3-(2-Bromo-benzyl)ureido]-2-hydroxy-4-phenyl-butyryl}-5,5-dimethyl-thiazolidine-4-carboxylic acid 2-methyl-benzylamide], which Ki is on record?
**A.** 6.6 nM

**Q.** With `Cc1ccccc1CNC(=O)[C@H]1N(C(=O)[C@@H](O)[C@H](Cc2ccccc2)NC(=O)NC(C)C)CSC1(C)C` [Example B17, 3-[(S)-2-Hydroxy-3-(3-isopropyl-ureide)-4-phenyl-butyryl]-5,5-dimethyl-thiazolidine-4carboxylic acid 2-methyl-benzylamide] as the compound, how does the Ki read?
**A.** 4.8 nM

**Q.** For `Cc1ccccc1CNC(=O)[C@@H]1CC(F)(F)CN1C(=O)[C@@H](O)[C@H](Cc1ccccc1)NC(=O)c1c(C)noc1C` [Example C43, 3,5-Dimethyl-isoxazole-4-carboxylic acid {1-benzyl-3-[4,4-difluoro-2-(2-methyl-benzylcarbamoyl)-pyrrolidin-1-yl]-2-hydroxy-3-oxo-propyl}-amide], which Ki is on record?
**A.** 21 nM

**Q.** `Cc1ccccc1CNC(=O)[C@H]1N(C(=O)[C@@H](O)[C@H](Cc2ccccc2)NC(=O)Nc2cccc(F)c2)CSC1(C)C` [Example B55, 3-{(2S,3S)-3-[3-(3-Fluoro-phenyl)-ureido]-2-hydroxy-4-phenyl-butyryl}-5,5-dimethyl-thiazolidine-4-carboxylic acid 2-methyl-benzylamide] was tested. Which Ki did it give?
**A.** 679 nM

Same assay, conditions: Ki, unit inferred

**Q.** How did the Ki turn out when `Cc1ccccc1CNC(=O)[C@H]1N(C(=O)[C@@H](O)[C@H](Cc2ccccc2)NC(=O)CCN)CSC1(C)C` was run?
**A.** 156 nM

**Q.** For `Cc1ccccc1CNC(=O)[C@H]1N(C(=O)[C@@H](O)[C@H](Cc2ccccc2)NC(=O)C(C)CNC(=O)OC(C)(C)C)CSC1(C)C` (stereo partly drawn), which Ki is on record?
**A.** 52 nM

**Q.** Which Ki does the source give for `Cc1ccccc1CCC(=O)C1N(C(=O)[C@@H](O)C(Cc2ccccc2)NC(=O)NCc2ccc(Cl)cc2)CSC1(C)C` (stereo partly drawn) here?
**A.** 8.2 nM

**Q.** With `Cc1ccccc1CNC(=O)[C@H]1N(C(=O)[C@@H](O)[C@H](Cc2ccccc2)NC(=O)CNc2ccc(F)cc2)CSC1(C)C` as the compound, how does the Ki read?
**A.** 6 nM

**Q.** For `Cc1ccccc1CNC(=O)C1N(C(=O)[C@@H](O)C(Cc2ccccc2)NC(=O)c2cnc3ccccc3c2)CSC1(C)C` (stereo partly drawn), which Ki is on record?
**A.** 18.1 nM

**Q.** `Cc1ccccc1CNC(=O)C1N(C(=O)[C@@H](O)[C@H](Cc2ccccc2)NC(=O)c2ccc3ccncc3c2)CSC1(C)C` (stereo partly drawn) was tested. Which Ki did it give?
**A.** 3.4 nM

**Q.** Which Ki does the source give for `Cc1ccccc1CNC(=O)[C@H]1N(C(=O)[C@@H](O)[C@H](Cc2ccccc2)NC(=O)COc2cccnc2Cl)CSC1(C)C` here?
**A.** 7.6 nM

**Q.** With `CCCNC(=O)[C@@H]1CC(F)(F)CN1C(=O)[C@@H](O)[C@H](Cc1ccccc1)NC(=O)c1ccc(C)c(O)c1C` as the compound, how does the Ki read?
**A.** 108 nM

**Q.** `COc1ccc(CNC(=O)C2N(C(=O)[C@@H](O)[C@H](Cc3ccccc3)NC(=O)OC(C)(C)C)CSC2(C)C)cc1` (stereo partly drawn) was tested. Which Ki did it give?
**A.** 25 nM

**Q.** Which Ki does the source give for `Cc1ccccc1CNC(=O)[C@H]1N(C(=O)[C@@H](O)[C@H](Cc2ccccc2)NC(=O)CN)CSC1(C)C` here?
**A.** 110 nM

**Q.** For `Cc1ccccc1CNC(=O)[C@H]1N(C(=O)[C@@H](O)[C@H](Cc2ccccc2)NC(=O)COc2cccnc2C)CSC1(C)C`, which Ki is on record?
**A.** 17 nM

**Q.** How did the Ki turn out when `Cc1c(O)cccc1C(=O)N[C@@H](Cc1ccccc1)[C@H](O)C(=O)N1CSC(C)(C)[C@H]1C(=O)NC1(C#N)CC1` was run?
**A.** 6.2 nM

**Q.** How did the Ki turn out when `Cc1ccccc1CNC(=O)[C@H]1N(C(=O)[C@@H](O)[C@H](Cc2ccccc2)NC(=O)C2CCCNC2)CSC1(C)C` (stereo partly drawn) was run?
**A.** 11.5 nM

**Q.** For `COc1cccc(CNC(=O)[C@H]2N(C(=O)[C@@H](O)[C@H](Cc3ccccc3)NC(=O)C=C(C)C)CSC2(C)C)c1`, which Ki is on record?
**A.** 125 nM

**Q.** How did the Ki turn out when `Cc1ccccc1CNC(=O)[C@@H]1CC(F)(F)CN1C(=O)[C@@H](O)[C@H](Cc1ccccc1)NC(=O)c1cccn1C` was run?
**A.** 59 nM

**Q.** With `Cc1ccccc1CNC(=O)[C@H]1N(C(=O)[C@@H](O)[C@H](Cc2ccccc2)NC(=O)COc2cccc3cnccc23)CSC1(C)C` as the compound, how does the Ki read?
**A.** 21 nM

**Q.** With `Cc1c(O)cccc1C(=O)N[C@@H](Cc1ccccc1)[C@H](O)C(=O)N1CSC(C)(C)[C@H]1C(=O)NCc1cc(Cl)nc(Cl)c1` as the compound, how does the Ki read?
**A.** 47 nM

**Q.** How did the Ki turn out when `Cc1c(C(=O)N[C@@H](Cc2ccccc2)[C@H](O)C(=O)N2CSC(C)(C)[C@H]2C(=O)N[C@@H]2C=CCCC2)ccc(F)c1O` was run?
**A.** 17.3 nM

**Q.** Which Ki does the source give for `Cc1ccccc1CNC(=O)[C@H]1N(C(=O)[C@@H](O)[C@H](Cc2ccccc2)NC(=O)CNC(=O)OC(C)(C)C)CSC1(C)C` here?
**A.** 88 nM

**Q.** For `Cc1ccccc1CNC(=O)[C@H]1N(C(=O)[C@@H](O)[C@H](Cc2ccccc2)NC(=O)CC(C)N)CSC1(C)C` (stereo partly drawn), which Ki is on record?
**A.** 108 nM

**Q.** With `CC1(C)SCN(C(=O)[C@@H](O)[C@H](Cc2ccccc2)NC(=O)NCc2ccccc2Cl)C1C(=O)NCc1ccccc1Cl` (stereo partly drawn) [drawing 953] as the compound, how does the Ki read?
**A.** 74 nM

**Q.** How did the Ki turn out when `C=CC(CC)OC(=O)N[C@@H](Cc1ccccc1)[C@H](O)C(=O)N1CSC(C)(C)[C@H]1C(=O)NCc1ccccc1C` (stereo partly drawn) was run?
**A.** 92 nM

**Q.** With `Cc1ccccc1CNC(=O)[C@H]1N(C(=O)[C@@H](O)[C@H](Cc2ccccc2)NC(=O)C(C)(C)CN)CSC1(C)C` as the compound, how does the Ki read?
**A.** 18.7 nM

**Q.** Which Ki does the source give for `CC(C)=CC(=O)N[C@@H](Cc1ccccc1)[C@H](O)C(=O)N1CSC(C)(C)[C@H]1C(=O)NCc1ccccc1C` here?
**A.** 6.1 nM

**Q.** With `CC(C)(C)OC(=O)N[C@@H](Cc1ccccc1)[C@H](O)C(=O)N1CSC(C)(C)C1C(=O)NCc1ccccc1Cl` (stereo partly drawn) as the compound, how does the Ki read?
**A.** 20 nM

**Q.** Which Ki does the source give for `Cc1ccccc1CNC(=O)[C@H]1N(C(=O)[C@@H](O)[C@H](Cc2ccccc2)NC(=O)OC2CCC3CCCC3C2)CSC1(C)C` (stereo partly drawn) here?
**A.** 148 nM

**Q.** Which Ki does the source give for `Cc1ccccc1CNC(=O)[C@H]1N(C(=O)[C@@H](O)[C@H](Cc2ccccc2)NC(=O)CCNC(=O)OC(C)(C)C)CSC1(C)C` [drawing 1035] here?
**A.** 94 nM

**Q.** How did the Ki turn out when `CC#CC(C)OC(=O)NC(Cc1ccccc1)[C@H](O)C(=O)N1CSC(C)(C)[C@H]1C(=O)NCc1ccccc1C` (stereo partly drawn) was run?
**A.** 29 nM

**Q.** With `Cc1ccccc1CNC(=O)[C@H]1N(C(=O)[C@@H](O)[C@H](Cc2ccccc2)NC(=O)/C=C/c2cccnc2)CSC1(C)C` as the compound, how does the Ki read?
**A.** 9.9 nM

— US7094909B2, “HIV protease inhibitors, compositions containing the same, their pharmaceutical uses and materials for their synthesis” (priority 2001, dated 2006)
